From the supplement of paper PMC10307832

What was measured:
Test in all cases: relative viability (nuclei count vs DMSO), 5 days (fraction); higher = more cells survive
[1] = compound: CC1=C(C(=NN1)C)CC2=C(C3=C(S2)N(C(=O)N(C3=O)C)CC(C)C)C(=O)N4C[C@@H](CO4)O + COc1cc2c(Oc3ccc(NC(=O)C4(C(=O)Nc5ccc(F)cc5)CC4)cc3F)ccnc2cc1OCCCN1CCOCC1 [Foretinib] (partner 0.25 µM)
Procedure, shortened: (§1)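 Lung cancer cell lines in 1536-well plates were dosed by pin tool the day after seeding, either with one drug alone or with a fixed anchor-drug dose plus five library-drug doses (not always all listed) in √10 steps. After 5 days, cells were fixed and their nuclei stained in one step (final 0.05% Triton X-100, 1% formaldehyde, 1 ug/ml Hoechst), then counted on 4× images. Relative viability is the nuclei count in treated wells divided by that in vehicle wells. Values are medians of duplicate plates.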

[2] = compound: CC1=C(C(=NN1)C)CC2=C(C3=C(S2)N(C(=O)N(C3=O)C)CC(C)C)C(=O)N4C[C@@H](CO4)O + Nc1nc2[nH]cc(CCc3ccc(C(=O)N[C@@H](CCC(=O)O)C(=O)O)cc3)c2c(=O)[nH]1 [Pemetrexed] (partner 0.2 µM)
Procedure, shortened: as §1

IDH-C35 + Bortezomib = compound: Cc1ccccc1C(C(=O)NC1CCCCC1)N(C(=O)Cn1ccnc1C)c1cccc(F)c1 [IDH-C35] + CC(C)C[C@H](NC(=O)[C@H](Cc1ccccc1)NC(=O)c1cnccn1)B(O)O [Bortezomib] (partner 0.002 µM)
Procedure, shortened: as §1

IDH-C35 + Crizotinib = compound: Cc1ccccc1C(C(=O)NC1CCCCC1)N(C(=O)Cn1ccnc1C)c1cccc(F)c1 [IDH-C35] + C[C@@H](Oc1cc(-c2cnn(C3CCNCC3)c2)cnc1N)c1c(Cl)ccc(F)c1Cl [Crizotinib] (partner 1 µM)
Procedure, shortened: as §1

## UMC-11
[1]; first compound 0.0025 µM
  relative viability: 1.16
[1]; first compound 0.007906 µM
  relative viability: 1.17
[1]; first compound 0.025 µM
  relative viability: 0.997
[1]; first compound 0.07906 µM
  relative viability: 1.07
[1]; first compound 0.25 µM
  relative viability: 1.08
[2]; first compound 0.0025 µM
  relative viability: 0.791
[2]; first compound 0.007906 µM
  relative viability: 0.86
[2]; first compound 0.025 µM
  relative viability: 0.779
[2]; first compound 0.07906 µM
  relative viability: 0.761
[2]; first compound 0.25 µM
  relative viability: 0.789
IDH-C35 + Bortezomib; first compound 0.08 µM
  relative viability: 0.736
IDH-C35 + Bortezomib; first compound 0.253 µM
  relative viability: 0.737
IDH-C35 + Bortezomib; first compound 0.8 µM
  relative viability: 0.487
IDH-C35 + Bortezomib; first compound 2.53 µM
  relative viability: 0.65
IDH-C35 + Bortezomib; first compound 8 µM
  relative viability: 0.636
IDH-C35 + Crizotinib; first compound 0.08 µM
  relative viability: 0.578
IDH-C35 + Crizotinib; first compound 0.253 µM
  relative viability: 0.56
IDH-C35 + Crizotinib; first compound 0.8 µM
  relative viability: 0.481
IDH-C35 + Crizotinib; first compound 2.53 µM
  relative viability: 0.576
IDH-C35 + Crizotinib; first compound 8 µM
  relative viability: 0.629
